Biological target: human SCD1 (Homo sapiens (Human), UniProt O00767)
Assay: Yeast growth assay, strain expressing human SCD1 as the sole desaturase (reduced growth as surrogate for SCD inhibition)
Type: cell-based
Conditions: yeast with OLE1 deleted expressing human SCD1 from a plasmid; growth read as OD600 after 40 h at 30° C.; top drug concentration 33.3 μM
Method: Strains expressing SCD1 or SCD5 as the sole desaturase, the human SCD1 and SCD5 genes were used to evaluate inhibition of SCD1/SCD5 using reduced growth as a surrogate for SCD inhibition. These yeast strains express human SCD1 or SCD5 from a plasmid harbored in a strain in which the yeast OLE1 gene is deleted.
All compound profiling experiments were performed using the same basic protocol. Yeast were cultured using standard techniques in complete synthetic media lacking uracil and containing yeast nitrogen base supplemented with 2% (w/v) glucose (SD-Ura) Starter cultures were inoculated in 3 mL SD-Ura media containing 0.01% tween and 0.2 mM palmitoleic and oleic acid. Cultures were incubated overnight in a 30° C. shaker incubator (225 rpm). Saturated morning cultures were centrifuged, washed in SD-Ura media lacking TWEEN-20 and fatty acids, and then diluted 1:20 in fresh SD-Ura media also lacking TWEEN-20 and fatty acids.
Compound administration was performed in two separate steps. First, 15 μL of SD-Ura was dispensed into clear 384-well assay plates using a MULTIDROP™ Combi reagent dispenser. […] The cultures described above were centrifuged and washed with media lacking TWEEN-20 or oleic and palmitoleic acids.
After yeast delivery, assay plates were incubated under humidified conditions at 30° C. for 40 h. Yeast growth was monitored by reading the OD600 of each well using a microplate reader (Perkin Elmer EnVision™).

human SCD1, sequence (O00767 whole entry): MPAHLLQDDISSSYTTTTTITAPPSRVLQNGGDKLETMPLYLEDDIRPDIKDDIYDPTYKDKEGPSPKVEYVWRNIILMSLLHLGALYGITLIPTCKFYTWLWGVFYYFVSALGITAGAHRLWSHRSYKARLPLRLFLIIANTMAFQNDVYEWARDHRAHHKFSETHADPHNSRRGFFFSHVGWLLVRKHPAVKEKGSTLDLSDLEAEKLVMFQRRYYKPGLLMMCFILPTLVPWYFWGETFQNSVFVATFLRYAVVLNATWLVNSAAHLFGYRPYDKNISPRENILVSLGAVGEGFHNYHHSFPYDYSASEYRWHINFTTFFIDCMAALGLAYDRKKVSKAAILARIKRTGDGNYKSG

Row | IC50 | Compound
1 | 8.9 µM | O=C(Nc1cnn(Cc2ccccc2)c1)c1cc(-c2nccs2)on1 [Compound 110, N-(1-benzyl-1H-pyrazol-4-yl)-5-(thiazol-2-yl)isoxazole-3-carboxamide]
2 | 9.4 µM | O=C(Nc1cnn(Cc2ccccc2F)c1)c1cc(-c2ccccc2)on1 [Compound 111]
3 | 30 µM | O=C(c1cc(-c2ccc3c(c2)OCO3)on1)N1C[C@@H](F)C[C@H]1c1ccccc1 [Compound 427]
4 | > 45 µM | O=C(c1cc(-c2ccc3c(c2)OCO3)on1)N1CCC[C@H]1c1ccon1 [Compound 426]
5 | > 45 µM | O=C(c1cc(-c2ccc3c(c2)OCO3)on1)N1CCCC1c1cccc(Br)c1 (stereo not shown) [Compound 388]
6 | > 45 µM | O=C(c1cc(-c2ccc3c(c2)OCO3)on1)N1CCCC1c1ccc(F)cc1 (stereo not shown) [Compound 368]
7 | > 45 µM | O=C(Nc1cnn(Cc2cnccc2C(F)(F)F)c1)c1cc(N2CCCCC2)on1 [Compound 182, 5-(piperidin-1-yl)-N-(1-((4-(trifluoromethyl)pyridin-3-yl)methyl)-1H-pyrazol-4-yl)isoxazole-3-carboxamide]
8 | > 45 µM | O=C(c1cc(-c2ccccc2)on1)N1CCCC1c1ccccc1 (stereo not shown) [Compound 387]
9 | 0.02 µM | C=C(C)c1cc(C(=O)Nc2cnn(Cc3cccc(F)c3)c2)no1 [Compound 58, N-(1-(3-fluorobenzyl)-1H-pyrazol-4-yl)-5-(prop-1-en-2-yl)isoxazole-3-carboxamide]
10 | 0.011 µM | O=C(Nc1cnn(Cc2cccc(F)c2)c1)c1cc(C2=CCCCC2)on1 [Compound 85, 5-cyclohexenyl-N-(1-(3-fluorobenzyl)-1H-pyrazol-4-yl)isoxazole-3-carboxamide]
11 | > 45 µM | O=C(c1cc(-c2ccc3c(c2)OCO3)on1)N1CCCC1c1cc(Br)no1 (stereo not shown) [Compound 412]
12 | > 45 µM | COc1cccc(C2CCCN2C(=O)c2cc(-c3ccc4c(c3)OCO4)on2)c1 (stereo not shown) [Compound 365]
13 | 0.026 µM | CC(C)c1cc(C(=O)Nc2cnn(Cc3ccccc3)c2)no1 [Compound 117, N-(1-benzyl-1H-pyrazol-4-yl)-5-isopropylisoxazole-3-carboxamide]
14 | 0.7 µM | O=C(Nc1cnn(Cc2ccccc2)c1)c1cc(-c2ccccn2)on1 [Compound 8, N-(1-benzylpyrazol-4-yl)-5-(2-pyridyl)isoxazole-3-carboxamide]
15 | > 45 µM | O=C(Nc1cnn(Cc2cnccc2C(F)(F)F)c1)c1cc(-c2ccco2)on1 [Compound 198, 5-(furan-2-yl)-N-(1-{[4-(trifluoromethyl)pyridin-3-yl]methyl}-1H-pyrazol-4-yl)-1,2-oxazole-3-carboxamide]
16 | > 45 µM | O=C(Nc1cnn(Cc2ccc(F)cc2)c1)c1cc(-c2ccco2)on1 [Compound 18, N-[1-[(4-fluorophenyl)methyl]pyrazol-4-yl]-5-(2-furyl)isoxazole-3-carboxamide]
17 | > 45 µM | COc1ccccc1Cn1cc(NC(=O)c2cc(-c3ccccc3)on2)cn1 [Compound 125, N-(1-(2-methoxybenzyl)-1H-pyrazol-4-yl)-5-phenylisoxazole-3-carboxamide]
18 | > 45 µM | O=C(c1cc(-c2ccc3c(c2)OCO3)on1)N1CCCC1c1ccccc1Br (stereo not shown) [Compound 390]
19 | 0.012 µM | CC(C)(C)OC(=O)N1CCN(c2cc(C(=O)Nc3cnn(Cc4ccccc4)c3)no2)CC1 [Compound 185, tert-butyl 4-(3-(1-benzyl-1H-pyrazol-4-ylcarbamoyl)isoxazol-5-yl)piperazine-1-carboxylate]
20 | 23.1 µM | COc1ccc(-c2cc(C(=O)N3CCC[C@H]3c3ccccc3)no2)nc1 [Compound 416]
21 | > 45 µM | CNC(=O)c1ccc(-c2cc(C(=O)N3CCC(F)(c4ccccc4)CC3)no2)cc1 [Compound 321]
22 | > 45 µM | O=C(c1cc(-c2ccc3c(c2)OCO3)on1)N1CCN(c2ccccc2F)CC1 [Compound 277]
23 | 0.01 µM | O=C(Nc1cnn(Cc2cccc(F)c2)c1)c1cc(-c2ccco2)on1 [Compound 30, N-[1-[(3-fluorophenyl)methyl]pyrazol-4-yl]-5-(2-furyl)isoxazole-3-carboxamide]
24 | 36.3 µM | Cn1cc(-c2cc(C(=O)N3CCC[C@H]3c3ccccc3)no2)ccc1=O [Compound 429]
25 | > 45 µM | O=C(c1cc(-c2ccc3c(c2)OCO3)on1)N1CCC[C@@H]1C(F)(F)F [Compound 372]
26 | > 45 µM | O=C(c1cc(-c2ccc3c(c2)OCO3)on1)N1CCCC1c1cccc(F)c1 (stereo not shown) [Compound 367]

Row | IC50 | Compound
27 | 1.57 µM | O=C(c1cc(-c2ccc3c(c2)OCO3)on1)N1CC(c2ccccc2)C1 [Compound 217, [5-(1,3-benzodioxol-5-yl)isoxazol-3-yl]-(3-phenylazetidin-1-yl)methanone]
28 | > 45 µM | N#Cc1ccc(C2CCCN2C(=O)c2cc(-c3ccc4c(c3)OCO4)on2)cc1 (stereo not shown) [Compound 395]
29 | 4.7 µM | O=C(Nc1cnn(Cc2ccccc2)c1)c1cc(-c2ncccc2F)on1 [Compound 122]
30 | > 45 µM | O=C(Nc1cnn(Cc2cnccc2C(F)(F)F)c1)c1cc(-c2ccc3c(c2)OCO3)on1 [Compound 199, 5-(2H-1,3-benzodioxol-5-yl)-N-(1-{[4-(trifluoromethyl)pyridin-3-yl]methyl}-1H-pyrazol-4-yl)-1,2-oxazole-3-carboxamide]
31 | > 45 µM | O=C(c1cc(-c2ccccc2)on1)N1CCC(c2cccc(F)c2)C1 (stereo not shown) [Compound 339]
32 | > 45 µM | COc1ccc(-c2cc(C(=O)N3CC(Cc4ccccc4)C3)no2)nn1 [Compound 256]
33 | > 45 µM | COc1ccc(C2CCCN2C(=O)c2cc(-c3ccc4c(c3)OCO4)on2)c(F)c1 (stereo not shown) [Compound 452]
34 | 0.36 µM | O=C(Nc1cnn(Cc2ccccc2F)c1)c1cc(-c2ccco2)on1 [Compound 19, N-[1-[(2-fluorophenyl)methyl]pyrazol-4-yl]-5-(2-furyl)isoxazole-3-carboxamide]
35 | > 45 µM | COc1ccc(C2CCCN2C(=O)c2cc(-c3ccc4c(C)nn(C)c4c3)on2)cc1 (stereo not shown) [Compound 394]
36 | > 45 µM | C[C@@H]1CCCN1C(=O)c1cc(-c2ccc3c(c2)OCO3)on1 [Compound 370]
37 | > 45 µM | O=C(c1cc(-c2ccccc2)on1)N1CCC(c2cccc(F)c2)CC1 [Compound 307, [4-(3-fluorophenyl)-1-piperidyl]-(5-phenylisoxazol-3-yl)methanone]
38 | 37.1 µM | O=C(c1cc(-c2ccc3c(c2)OCO3)on1)N1CC2(CC(c3ccccc3)C2)C1 [Compound 228]
39 | 0.074 µM | CO[C@@H]1CCN(c2cc(C(=O)Nc3cnn(Cc4ccccc4)c3)no2)C1 [Compound 188, (R)—N-(1-benzyl-1H-pyrazol-4-yl)-5-(3-methoxypyrrolidin-1-yl)isoxazole-3-carboxamide]
40 | > 45 µM | O=C(c1cc(-c2ccc3c(c2)OCO3)on1)N1CCCC1c1ccc(Br)cc1 (stereo not shown) [Compound 389]
41 | 5.12 µM | COCc1ncc(-c2cc(C(=O)Nc3cnn(Cc4ccccc4)c3)no2)s1 [Compound 140, N-(1-benzyl-1H-pyrazol-4-yl)-5-(2-(methoxymethyl)thiazol-5-yl)isoxazole-3-carboxamide]
42 | 0.94 µM | COC1(c2cc(C(=O)Nc3cnn(Cc4ccccc4)c3)no2)CCC1 [Compound 120]
43 | > 45 µM | O=C(Nc1cnn(Cc2cnccc2C(F)(F)F)c1)c1cc(-c2ccccn2)on1 [Compound 197, 5-(pyridin-2-yl)-N-(1-{[4-(trifluoromethyl)pyridin-3-yl]methyl}-1H-pyrazol-4-yl)-1,2-oxazole-3-carboxamide]
44 | 38.9 µM | N#Cc1cccc(C2CCCN2C(=O)c2cc(-c3ccc4c(c3)OCO4)on2)c1 (stereo not shown) [Compound 396]
45 | 15 µM | O=C(Nc1cnn(Cc2ccccc2)c1)c1cc(N2CC[C@H](O)C2)on1 [Compound 187]
46 | > 45 µM | O=C(c1cc(-c2ccc3c(c2)OCO3)on1)N1C[C@H](F)C[C@H]1c1ccccc1 [Compound 420]
47 | 27.1 µM | COc1ccc(-c2cc(C(=O)N3CCC[C@H]3c3ccccc3)no2)cn1 [Compound 410]
48 | 0.09 µM | O=C(Nc1cnn(Cc2ccccc2)c1)c1cc(-c2ccco2)on1 [Compound 4, N-(1-benzyl-1H-pyrazol-4-yl)-5-(furan-2-yl)isoxazole-3-carboxamide]
49 | > 45 µM | Cc1nn(Cc2ccccc2)c(C)c1NC(=O)c1cc(-c2ccc3c(c2)OCO3)on1 [Compound 5]
50 | > 45 µM | N#Cc1ccccc1-c1cc(C(=O)N2CCC[C@H]2c2ccccc2)no1 [Compound 402]
51 | > 45 µM | O=C(c1cc(-c2ccc3c(c2)OCO3)on1)N1CCOCC1c1ccccc1 (stereo not shown) [Compound 397]
52 | > 45 µM | CC(C)c1cc(C(=O)N2CC(Cc3ccccc3)C2)no1 [Compound 251]

Row | Compound | IC50
53 | N#Cc1ccc(-c2cc(C(=O)N3CCC(c4ccccc4)CC3)no2)c(F)c1 [Compound 325, 3-fluoro-4-(3-(4-phenylpiperidine-1-carbonyl)isoxazol-5-yl)benzonitrile] | 0.16 µM
54 | O=C(Nc1cnn(Cc2ccccc2)c1)c1cc(N2CCCC2)on1 [Compound 178, N-(1-benzyl-1H-pyrazol-4-yl)-5-(pyrrolidin-1-yl)isoxazole-3-carboxamide] | 0.01 µM
55 | O=C(Nc1cc(-c2ccco2)on1)c1cnn(Cc2ccccc2)c1 [Compound 49, 1-benzyl-N-[5-(2-furyl)isoxazol-3-yl]pyrazole-4-carboxamide] | > 45 µM
